Measured values as given in the NIST ThermoML archive (doi:10.1021/je900550v).

Experiment: refractive index (Na D-line) (dimensionless)
Conditions: 101.33 kPa, Liquid, Standard Abbe refractometry

CCCCC(=O)[O-].C[NH2+]CCO [2-hydroxy-N-methylethanaminium pentanoate]
Conditions | refractive index
288.15 K | 1.4568
293.12 K | 1.4554
298.19 K | 1.4538
303.15 K | 1.4524
308.18 K | 1.4508
313.25 K | 1.4492
318.15 K | 1.4474
323.18 K | 1.4461

CCC(=O)[O-].C[NH2+]CCO [2-hydroxy-N-methylethanaminium propionate]
Conditions | refractive index
288.15 K | 1.4561
293.2 K | 1.4548
298.2 K | 1.4534
303.15 K | 1.452
308.15 K | 1.4507
313.18 K | 1.4492
318.15 K | 1.4478
323.15 K | 1.4464

CC(C)C(=O)[O-].C[NH2+]CCO [2-hydroxy-N-methylethanaminium isobutyrate]
Conditions | refractive index
288.11 K | 1.4539
293.15 K | 1.4525
298.05 K | 1.4511
303.05 K | 1.4496
308.05 K | 1.4481
313.05 K | 1.4463
318.08 K | 1.4448
323.15 K | 1.4433

CC(=O)[O-].C[NH2+]CCO [N-methyl-2-hydroxyethylammonium acetate]
Conditions | refractive index
288.25 K | 1.4518
293.23 K | 1.4506
298.15 K | 1.4494
303.13 K | 1.4483
308.13 K | 1.447
313.05 K | 1.4457
318.13 K | 1.4445
323.1 K | 1.4433

C[NH2+]CCO.O=C[O-] [2-hydroxy-N-methylethanaminium formate]
Conditions | refractive index
288.35 K | 1.4485
293.15 K | 1.447
298.35 K | 1.4458
303.15 K | 1.4446
308.23 K | 1.4429
313.1 K | 1.4418
318.15 K | 1.4406
322.85 K | 1.4396

CCCC(=O)[O-].C[NH2+]CCO [N-methyl-2-hydroxyethylammonium butanoate]
Conditions | refractive index
288.15 K | 1.4579
293.15 K | 1.4564
298.15 K | 1.4549
303.15 K | 1.4534
308.15 K | 1.452
313.15 K | 1.4504
318.15 K | 1.4488
323.15 K | 1.4471
